Among the data in PubChem BioAssay (NCI) are GI50 and TGI values, retold here.

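In this assay, cells in 96-well plates receive the compound at five concentrations for 48 hours. Endpoints are linearly interpolated between the surrounding concentrations. Here, GI50 denotes the concentration required for 50% inhibition of growth. TGI denotes the concentration required for complete inhibition of growth.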

Test systems include 786-0 renal; CCRF-CEM leukemia; DU-145 prostate; EKVX NSCLC; NCI-H460 lung; OVCAR-8 ovarian; PC-3 prostate; SNB-75 CNS; T-47D breast; UO-31 renal.
Common to all, as to experiment: inhibition of tumour cell growth, NCI panel, 48 h

On to `O=C(Nc1ccc(Oc2ccc3nc(NC(=O)c4ccccc4)[nH]c3c2)cc1)Nc1cc(C(F)(F)F)ccc1F`, for which the GI50 with 786-0 renal was 7.32 µM; with CCRF-CEM leukemia, 0.657 µM; in the test on DU-145 prostate it was 1.32 µM; with EKVX NSCLC it was 0.969 µM; in the test with NCI-H460 lung, 1.59 µM; with OVCAR-8 ovarian it was 0.764 µM. The GI50 was 0.624 µM with PC-3 prostate, 1.3 µM with SNB-75 CNS, 0.783 µM in the test with T-47D breast and 1.31 µM in the test on UO-31 renal. The TGI is over 25 µM in the test with 786-0 renal; over 9.17 µM in the test with CCRF-CEM leukemia; 16.6 µM in the test with DU-145 prostate; over 25 µM in the test on EKVX NSCLC; over 22.4 µM in the test on NCI-H460 lung; 5.08 µM in the test on OVCAR-8 ovarian. Besides, the TGI stood at 2.76 µM in the test on PC-3 prostate, 10 µM with SNB-75 CNS, 3.17 µM in the test on T-47D breast and 15.6 µM with UO-31 renal.
As to `CCOC(=O)c1c2c(n(Cc3ccccc3)c1C)-c1ccccc1C(=O)C2=O`, the GI50 was 6.35 µM in the test with 786-0 renal; 3.36 µM in the test with CCRF-CEM leukemia; 4.21 µM with DU-145 prostate; 11.9 µM in the test with EKVX NSCLC; 6.31 µM in the test on NCI-H460 lung; 14.9 µM in the test with OVCAR-8 ovarian. Besides, the GI50 was 6.83 µM in the test on PC-3 prostate, 10.7 µM with SNB-75 CNS, 13.2 µM in the test with T-47D breast and 16.3 µM in the test with UO-31 renal. The TGI in the test on 786-0 renal stood at 19.3 µM; in the test with CCRF-CEM leukemia, 13.5 µM; in the test with DU-145 prostate, 12.4 µM; with EKVX NSCLC, 29.2 µM; in the test on NCI-H460 lung, 21.5 µM; with OVCAR-8 ovarian it was 43.7 µM. In addition, the TGI in the test on PC-3 prostate turned out to be 19.8 µM; in the test with SNB-75 CNS, 24.7 µM; with T-47D breast, 31.8 µM; in the test on UO-31 renal it was 31.6 µM.
With `CC1CCN(CCCCCOc2ccc3oc4cc(Cl)ccc4c(=O)c3c2)CC1`, the GI50 is 6.29 µM in the test with 786-0 renal; 5.76 µM in the test with CCRF-CEM leukemia; 7.14 µM in the test on DU-145 prostate; 7.03 µM with EKVX NSCLC; 6.63 µM in the test on NCI-H460 lung; 7.95 µM with OVCAR-8 ovarian. Also, the GI50 in the test with PC-3 prostate is 6.89 µM; in the test with SNB-75 CNS, 6.59 µM; in the test with T-47D breast, 6.86 µM; with UO-31 renal, 5.7 µM. Moreover, the TGI in the test on 786-0 renal was found to be 12.7 µM; in the test on CCRF-CEM leukemia, 14.2 µM; with DU-145 prostate, 13.9 µM; in the test on EKVX NSCLC, 14.3 µM; with NCI-H460 lung it was 13.9 µM; in the test with OVCAR-8 ovarian, 16 µM. The TGI turned out to be 16.4 µM with PC-3 prostate, 13 µM with SNB-75 CNS, 16.4 µM in the test with T-47D breast and 11.8 µM in the test on UO-31 renal.
As for `Cc1ccc(Nc2n[nH]c(=S)s2)cc1`, the TGI in the test with 786-0 renal, in the test on CCRF-CEM leukemia, in the test on DU-145 prostate, in the test on EKVX NSCLC, in the test on NCI-H460 lung and with OVCAR-8 ovarian was over 100 µM each time. For the same molecule, the TGI in the test on PC-3 prostate, in the test on SNB-75 CNS, in the test with T-47D breast and in the test with UO-31 renal was over 100 µM each time.
On to `O=c1c2ccccc2n2n1CC(O)C2` (stereo not drawn), for which the TGI in the test with 786-0 renal, with CCRF-CEM leukemia, in the test with DU-145 prostate, with EKVX NSCLC, in the test on NCI-H460 lung and in the test with OVCAR-8 ovarian was over 100 µM throughout. For the same molecule, the TGI in the test on PC-3 prostate, in the test with SNB-75 CNS, in the test on T-47D breast and in the test with UO-31 renal was over 100 µM each time. The GI50 with DU-145 prostate, in the test with PC-3 prostate and with T-47D breast was over 100 µM in each case.
With `O=C1c2ccccc2C(=Cc2ccccc2)c2ccccc21`, the GI50 is 2.7 µM with 786-0 renal; 2.77 µM in the test with CCRF-CEM leukemia; 2.44 µM with DU-145 prostate; 2.93 µM in the test on EKVX NSCLC; 2.98 µM in the test on NCI-H460 lung; 2.19 µM in the test with OVCAR-8 ovarian. Further, the GI50 in the test on PC-3 prostate is 2.26 µM; with SNB-75 CNS it was 2.34 µM; in the test with T-47D breast it was 2.68 µM; with UO-31 renal, 2.1 µM. Also, the TGI is 6.94 µM in the test with 786-0 renal; 29 µM in the test with CCRF-CEM leukemia; 6.94 µM in the test on DU-145 prostate; 37.9 µM with EKVX NSCLC; 15 µM in the test on NCI-H460 lung; 5.26 µM in the test on OVCAR-8 ovarian. The TGI in the test with PC-3 prostate came to 15.8 µM; with SNB-75 CNS it was 7.45 µM; in the test on T-47D breast, 9.65 µM; in the test on UO-31 renal it was 10.2 µM.
